Experiment [1] relates to Cytotoxicity. In words: NFkB reporter suppression in cystic fibrosis bronchial cells – cell-based, uHTS hits, panel, cytotoxicity readout, dose response (AID 624344). The following applies: CF bronchial epithelial cells, mean of runs.
Assay in experiment [2]: as above
The following applies: CF bronchial epithelial cells, PAF-induced NFkB reporter inhibition; with PAF, mean of runs.

Activity calls are given as the source filed them. How the calls were made is not given here.

Results on 67 molecules are retold here after PubChem BioAssay AID624344 (Sanford-Burnham Center for Chemical Genomics, 2012).

What is called IC50 is the midpoint of a concentration-inhibition curve.

For `Cc1ccc(C(C(=O)NCc2ccccc2)N(Cc2cccs2)C(=O)c2ccc3c(c2)OCCO3)cc1` (centres undefined), the IC50 in experiment [1] was 3.48 µM; in experiment [2] it was 3.04 µM.

As for `CN(CCC#N)C(=O)COC(=O)c1ccccc1C(=O)c1ccc(Cl)c([N+](=O)[O-])c1`, the IC50 in experiment [1] was 16.5 µM; in experiment [2], 5.31 µM.

For the molecule `Cc1ccc(N=Cc2cc3c(cc2O)OC(N)=C(C#N)C3c2ccccc2)cc1` (centres undefined), the IC50 is 53.6 µM (inactive) in experiment [1] and 2.07 µM in experiment [2].

As for `COc1ccc(-n2ncc3c(N4CCN(Cc5ccccc5)CC4)ncnc32)cc1`, the IC50 in experiment [1] was 6.95 µM; in experiment [2], 3.85 µM.

`CC(C)c1ccccc1NC(=O)COC(=O)c1c2c(nc3ccccc13)CCN(Cc1ccccc1)C2`: the IC50 in experiment [1] is 21.2 µM; in experiment [2], 6.98 µM.

For `O=[N+]([O-])c1ccc(Oc2ccc(F)cc2)c2ccncc12`, the results for the IC50 in experiment [1] and in experiment [2] were 42.4 µM and 1.82 µM, respectively.

Turning to `COc1ccc(Nc2nc(-c3ccccc3)nc3ccccc23)cc1S(=O)(=O)N1CCOCC1`, the IC50 in experiment [1] is 7.17 µM; in experiment [2], 4.84 µM.

Consider `O=C1Nc2ccccc2/C1=C/c1ccnc2ccccc12`, for which the results for the IC50 in experiment [1] and in experiment [2] were 36.3 µM and 5.85 µM, respectively.

On to `Cc1c(C(=O)OC2CCCC2)[nH]c2c1C(=O)CC(c1ccco1)C2` (centres undefined), for which the IC50 in experiment [1] was 46.3 µM. Besides, the IC50 result in experiment [2] was “inactive”.

On to `C[C@@H]1CN([C@H](C)CO)C(=O)c2cc(NC(=O)Nc3ccc(C(F)(F)F)cc3)ccc2O[C@H]1CN(C)S(=O)(=O)c1ccccc1`, for which the figures for the IC50 in experiment [1] and in experiment [2] were 77.2 µM (inactive) and 9.21 µM, respectively.

For the molecule `CC(C)=CCc1c(O)cc(O)c2c1OC(c1ccc(O)cc1)CC2=O` (centres undefined), the IC50 is 43.6 µM in experiment [1] and 4.52 µM in experiment [2].

Turning to `O=C(COC(=O)c1ccccc1C(=O)c1ccc(Cl)c([N+](=O)[O-])c1)NC1CCCCCC1`, the IC50 is 5.03 µM in experiment [1] and 1.6 µM in experiment [2].

For the molecule `Cc1nn(-c2ccccc2)c(Cl)c1C(=O)N1CCN(c2ncnc3c2cnn3-c2ccccc2)CC1`, the IC50 in experiment [1] was 1.42 µM; in experiment [2], 3.18 µM.

With `Cc1c(Cl)cccc1NC(=O)COC(=O)c1c2c(nc3ccccc13)CCN(Cc1ccccc1)C2`, the IC50 in experiment [1] is 13.5 µM; in experiment [2], 6.85 µM.

With `COc1ccc(/C=C/C(=O)c2cc(F)ccc2OC(=O)c2ccccc2C)cc1OC`, the IC50 in experiment [1] is 62.5 µM (inactive). In experiment [2], the IC50 result is “inactive”.

For the molecule `Cc1ccc(Nc2nc3nonc3[nH]c2=O)cc1Cl`, the IC50 was 15.1 µM in experiment [1] and 4.7 µM in experiment [2].

Consider `CC(=O)Oc1c(Cl)cc(N(C(C)=O)S(=O)(=O)c2ccccc2)c2ccccc12`, for which the IC50 in experiment [1] is 8.93 µM; in experiment [2] it was 7.68 µM.

`C=CCn1cnc2c(c1=O)c1nc3ccccc3nc1n2/N=C/c1cc(OC)c(OC)c(OC)c1`: the results for the IC50 in experiment [1] and in experiment [2] were 5.94 µM and 4.18 µM, respectively.

`CCCNC(=O)COC(=O)c1ccccc1C(=O)c1ccc(Cl)c([N+](=O)[O-])c1`: the IC50 in experiment [1] is 7.71 µM; in experiment [2] it was 1.8 µM.

As to `CC(C)OC(=O)c1cccc(C(=O)Nc2cccc(NC(=O)c3cccc(C(=O)OC(C)C)n3)n2)n1`, the IC50 in experiment [1] was > 79 µM (inactive); in experiment [2] it was 4.5 µM.

In the case of `CC1(Cc2ccc(Cl)cc2)C(=O)Nc2ccc(-c3cccnc3)cc21` (centres undefined), the IC50 is 26.6 µM in experiment [1] and 1.28 µM in experiment [2].

As to `O=C(NCc1nc(-c2ccc(C(F)(F)F)cc2)no1)Nc1cc(Cl)cc(Cl)c1`, the results for the IC50 in experiment [1] and in experiment [2] were 5.56 µM and 5.81 µM, respectively.

`O=C(Nc1cccc2[nH]ncc12)c1ccc(F)cc1`: the values for the IC50 in experiment [1] and in experiment [2] were > 79 µM (inactive) and 1.06 µM, respectively.

In the case of `COc1ccc2cc3c(N)nn(C(=O)c4ccccc4[N+](=O)[O-])c3nc2c1`, the IC50 in experiment [1] was 40.2 µM; in experiment [2] it was 0.54 µM.

Consider `COc1ccc(-c2cn[nH]c2-c2ccc(OCc3ccccc3)cc2O)cc1`, for which the IC50 in experiment [1] was 16.7 µM; in experiment [2] it was 3.7 µM.

As to `COc1ccc(-c2cc(=O)oc3c(C)c(O)ccc23)cc1`, the IC50 was 67.5 µM (inactive) in experiment [1] and 0.867 µM in experiment [2].

For `CNc1ccc2ncc(-c3ccc(OC)c(OC)c3)n2n1`, the results for the IC50 in experiment [1] and in experiment [2] were 15.8 µM and 0.535 µM, respectively.

In the case of `COc1ccc(-n2c(C)cc3cc(OC(C)=O)ccc32)cc1`, the IC50 in experiment [1] is > 79 µM (inactive); in experiment [2] it was 9.18 µM.

For `COc1ccc(-c2cc(=O)oc3c(C)c(OC(=O)c4cccs4)ccc23)cc1`, the IC50 in experiment [1] is > 79 µM (inactive); in experiment [2] it was 1.6 µM.

Take `O=[N+]([O-])c1ccc(O)c(C2CCCCC2)c1`: the IC50 in experiment [1] was 3.28 µM; in experiment [2], 2.04 µM.

On to `CC(C)Nc1ncnc2ccc(Br)cc12`, for which the IC50 in experiment [1] is 10.8 µM; in experiment [2] it was 0.706 µM.

As to `C#CCN(C[C@@H]1[C@@H](OC(=O)NC2CC2)[C@@H](OC(=O)NC2CC2)Cn2c(=O)ccc(=O)n21)S(=O)(=O)c1ccc(C)cc1`, the IC50 was 19.2 µM in experiment [1] and 2.73 µM in experiment [2].

`COc1cc(NC(=O)Cn2ncc(Cl)c(Cl)c2=O)c(C)cc1[N+](=O)[O-]`: the results for the IC50 in experiment [1] and in experiment [2] were 3.15 µM and 3.31 µM, respectively.

As to `O=C(Nc1ccc2c(c1)OCCO2)c1cc(-c2ccccn2)nc2ccc(Br)cc12`, the IC50 in experiment [1] is 49.4 µM. Besides, the IC50 result in experiment [2] was “inactive”.

As for `CC(=O)c1c(C)n(-c2ccc(C)cc2C)c2ccc(O)cc12`, the IC50 in experiment [1] was > 79 µM (inactive); in experiment [2], 12.7 µM.

Turning to `Cc1ccc(C(=O)c2cc([N+](=O)[O-])ccc2N2CCCCC2)c(C)c1`, the IC50 is > 79 µM (inactive) in experiment [1] and 6.86 µM in experiment [2].

Take `Cc1ccc2occ(/C=N/NC(=O)c3ccccc3C)c(=O)c2c1`: the IC50 is 43.2 µM in experiment [1] and 1.36 µM in experiment [2].

For the molecule `CC(=O)Nc1ccc(Nc2nc(-c3sc(NC(C)=O)nc3C)cs2)cc1`, the IC50 was 28.4 µM in experiment [1] and 1.69 µM in experiment [2].

In the case of `CC(=O)OC1CCC2(C)C(CCC3C4CC=C(C(C)=O)C4(C)OC(=O)CC32)C1` (centres undefined), the IC50 in experiment [1] is 5.07 µM; in experiment [2], 0.972 µM.

For `CC(=O)c1cccc(NC(=O)Nc2cccnc2)c1`, the results for the IC50 in experiment [1] and in experiment [2] were 40.3 µM and 0.608 µM, respectively.

As for `Cc1c(C=O)c(C=O)c(C)n1Cc1ccccc1`, the IC50 is 4.67 µM in experiment [1] and 1.64 µM in experiment [2].

As for `CCCCn1nnnc1C(CCc1ccccc1)N1CCC(n2c(=O)[nH]c3ccccc32)CC1` (centres undefined), the IC50 in experiment [1] is 12 µM; in experiment [2] it was 5.91 µM.

Regarding `CC(=O)Nc1ccc(NC(=O)COC(=O)c2c3c(nc4ccccc24)CCN(Cc2ccccc2)C3)cc1`, the IC50 is 4.16 µM in experiment [1] and 5.27 µM in experiment [2].

`Cc1cc(C)c(C#N)c(SCC(=O)c2ccc(Cl)cc2Cl)n1`: the IC50 in experiment [1] is 14.8 µM; in experiment [2], 6.02 µM.

Turning to `C=CCc1cc(S(=O)(=O)c2ccc(O)c(CC=C)c2)ccc1O`, the IC50 is 56.8 µM (inactive) in experiment [1] and 6.34 µM in experiment [2].

In the case of `O=C(NCCC1=CCCCC1)c1coc(=O)c(Br)c1`, the IC50 in experiment [1] was 10.7 µM; in experiment [2], 3.01 µM.

For the molecule `COc1cc(NC(=O)c2csc(-c3ccncc3)n2)cc(C(=O)Nc2cccc(C(F)(F)F)c2)c1`, the figures for the half-maximal inhibitory concentration (IC50) in experiment [1] and in experiment [2] were 46 µM and 4.32 µM, respectively.

Take `c1nc(N2CCOCC2)c2c3c(sc2n1)CCCC3`: the IC50 was 62.3 µM (inactive) in experiment [1] and 6.88 µM in experiment [2].

For the molecule `CC(=O)OCCCNc1cc(Sc2ccc(Cl)cc2)c2nonc2c1[N+](=O)[O-]`, the IC50 in experiment [1] is 11.1 µM; in experiment [2], 13 µM.

Take `C=CC[C@]12CC=CC(=O)[C@@]1(O)O[C@H](c1ccc(OC)c(OC)c1)[C@H]2C`: the IC50 in experiment [1] is 6.69 µM; in experiment [2], 4.61 µM.

Turning to `NC(=Nc1ccccc1)NN=Cc1c[nH]c2ccccc12`, the IC50 in experiment [1] was 23.3 µM. In experiment [2], the IC50 result was “inactive”.

On to `Cc1cnc(NC(=O)CCCc2nc3ccccc3s2)s1`, for which the IC50 was 44.5 µM in experiment [1] and 4.23 µM in experiment [2].

On to `CC(=O)Nc1ccc(NC(=O)C(C)OC(=O)c2ccccc2C(=O)c2ccc(Cl)c([N+](=O)[O-])c2)cc1` (centres undefined), for which the results for the IC50 in experiment [1] and in experiment [2] were 45.2 µM and 15.3 µM, respectively.

For the molecule `CCN(CC)CCN(C(=O)CCS(=O)(=O)c1ccccc1)c1nc2c(C)cc(C)cc2s1`, the IC50 in experiment [1] is 8 µM; in experiment [2] it was 5.98 µM.

In the case of `CCOc1ccc(NCc2cc3c(C(C)(C)C)nn(-c4ccccc4)c3[nH]c2=O)cc1`, the IC50 in experiment [1] is 27.4 µM; in experiment [2] it was 7.26 µM.

Turning to `COc1ccc(C(C(=O)NCC2CCCO2)N(Cc2cccs2)C(=O)c2snc(C(N)=O)c2N)cc1` (centres undefined), the IC50 in experiment [1] is 44.2 µM; in experiment [2], 3.11 µM.

For `CCN(CC)CCNC(=O)c1ccc(NC(=O)C2CCN(c3ncnc4sc(C)c(C)c34)CC2)cc1`, the values for the IC50 in experiment [1] and in experiment [2] were 16.1 µM and 6.33 µM, respectively.

As to `O=c1cc(-c2ccccc2Cl)oc2c([N+](=O)[O-])c(O)cc(O)c12`, the IC50 is 5.36 µM in experiment [1] and 0.235 µM in experiment [2].

In the case of `C=C1C(=O)OC2CC3(C)OC3CCC(C)=CC(OC(C)=O)C12` (centres undefined), the figures for the IC50 in experiment [1] and in experiment [2] were 2.35 µM and 2.27 µM, respectively.

As for `NC(=O)c1sc2nc3c(c(-c4ccco4)c2c1N)CCCC3`, the IC50 in experiment [1] is 44.5 µM; in experiment [2], 2.73 µM.

With `CCS(=O)(=O)c1ncc(Cl)c(C(=O)Nc2ccccc2OC)n1`, the IC50 in experiment [1] is 7.42 µM; in experiment [2], 1.82 µM.

Regarding `O=[N+]([O-])c1ccc2ncnc(N3CCN(Cc4ccc5c(c4)OCO5)CC3)c2c1`, the IC50 in experiment [1] is > 79 µM (inactive); in experiment [2], 2.62 µM.

For the molecule `COc1ccc(CN(C)C(=O)c2cc(-c3ccc(C)cc3C)nc3ccccc23)c(OC)c1OC`, the IC50 is 7.07 µM in experiment [1] and 6.52 µM in experiment [2].

With `Cc1ccc2[nH]cc(C(=O)CCl)c2c1`, the IC50 in experiment [1] was 4.07 µM; in experiment [2], 2.32 µM.

On to `COc1cccc(-c2ccc3ncnc(NCc4ccc5c(c4)OCO5)c3c2)c1`, for which the IC50 in experiment [1] was 18.1 µM; in experiment [2] it was 1.61 µM.

For `Cc1ccc(Sc2c(C=O)c3ccccc3n2C)cc1`, the IC50 in experiment [1] was 18 µM; in experiment [2], 2 µM.

As to `Cc1ccc(NC(=O)Nc2cccc([N+](=O)[O-])c2)cc1F`, the IC50 in experiment [1] was 3.58 µM; in experiment [2], 6.2 µM.
